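Where inhibition never reached the appropriate level, the endpoint shown equals the highest concentration tested. Otherwise, values were interpolated linearly from a five-concentration, 48-hour dose response in 96-well plates. GI50: concentration for 50% inhibition of growth.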 Calls of active or inactive are those of the source. No stated cut-off is given here; in the data, active = GI50 up to about 1.1 µM and inactive = higher.
Key:
Assay in all cases: inhibition of tumour cell growth, NCI panel, 48 h
SK-OV-3 = test system: SK-OV-3
MDA-MB-435 = test system: MDA-MB-435
SK-MEL-5 = test system: SK-MEL-5
HT-29 = test system: HT-29
RXF 393 = test system: RXF 393
SR = test system: SR
CCRF-CEM = test system: CCRF-CEM
EKVX = test system: EKVX
UO-31 = test system: UO-31
NCI-H522 = test system: NCI-H522
SNB-19 = test system: SNB-19
HCC 2998 = test system: HCC 2998
NCI-H460 = test system: NCI-H460
Hs-578T = test system: Hs-578T
HCT-116 = test system: HCT-116
COLO 205 = test system: COLO 205
HCT-15 = test system: HCT-15
MCF7 = test system: MCF7
OVCAR-4 = test system: OVCAR-4
U-251 = test system: U-251
SF-268 = test system: SF-268
MOLT-4 = test system: MOLT-4
NCI/ADR-RES = test system: NCI/ADR-RES
MDA-N = test system: MDA-N
ACHN = test system: ACHN
NCI-H23 = test system: NCI-H23
OVCAR-8 = test system: OVCAR-8
RPMI-8226 = test system: RPMI-8226
HOP-92 = test system: HOP-92
HOP-62 = test system: HOP-62
TK-10 = test system: TK-10
KM12 = test system: KM12
LOX IMVI = test system: LOX IMVI
Malme-3M = test system: Malme-3M
OVCAR-5 = test system: OVCAR-5
SF-539 = test system: SF-539
K562 = test system: K562
A549 = test system: A549
786-0 = test system: 786-0
DU-145 = test system: DU-145
SF-295 = test system: SF-295
IGROV-1 = test system: IGROV-1
MDA-MB-231 = test system: MDA-MB-231
UACC-257 = test system: UACC-257
OVCAR-3 = test system: OVCAR-3
SNB-75 = test system: SNB-75
PC-3 = test system: PC-3
SK-MEL-28 = test system: SK-MEL-28
SK-MEL-2 = test system: SK-MEL-2
M14 = test system: M14
CAKI-1 = test system: CAKI-1
UACC-62 = test system: UACC-62
SN12C = test system: SN12C
SW-620 = test system: SW-620
HL-60 = test system: HL-60
NCI-H226 = test system: NCI-H226
T47D = test system: T47D
BT-549 = test system: BT-549
A498 = test system: A498

Measured: GI50

CCCCCC(=O)N[C@@H](c1ccco1)[C@@H](O)C(=O)O[C@H]1C[C@@]2(O)[C@@H](OC(=O)c3ccccc3)[C@@H]3[C@]4(OC(C)=O)CO[C@@H]4C[C@H](O)[C@@]3(C)C(=O)[C@H](OC(C)=O)C(=C1C)C2(C)C
0.0295 µM: HCT-15
active: SK-OV-3 < 0.0025 µM | MDA-MB-435 < 0.0025 µM | SK-MEL-5 0.025 µM | HT-29 < 0.0025 µM | RXF 393 < 0.0025 µM | SR < 0.0025 µM | CCRF-CEM < 0.0025 µM | UO-31 0.0575 µM | NCI-H522 < 0.0025 µM | SNB-19 < 0.0025 µM | HCC 2998 < 0.0025 µM | NCI-H460 < 0.0025 µM | Hs-578T < 0.0025 µM | HCT-116 < 0.0025 µM | COLO 205 < 0.0025 µM | MCF7 < 0.0025 µM | U-251 < 0.0025 µM | SF-268 < 0.0025 µM | MOLT-4 < 0.0025 µM | MDA-N < 0.0025 µM | ACHN 0.0406 µM | NCI-H23 < 0.0025 µM | OVCAR-8 < 0.0025 µM | RPMI-8226 < 0.0025 µM | HOP-92 < 0.0025 µM | HOP-62 < 0.0025 µM | TK-10 0.0908 µM | KM12 < 0.0025 µM
inactive: EKVX > 25 µM | OVCAR-4 4.32 µM | NCI/ADR-RES 1.75 µM

COc1ccc(/C(=N/O)c2ccccc2C2=Nc3ccccc3C(NCc3ccccc3)O2)cc1C (stereo unspecified)
30.3 µM: HCT-15
inactive: LOX IMVI 15.7 µM | Malme-3M 18.6 µM | SK-OV-3 21.2 µM | OVCAR-5 33.8 µM | SF-539 96.2 µM | MDA-MB-435 27.2 µM | K562 16.7 µM | SK-MEL-5 17.5 µM | HT-29 25.1 µM | RXF 393 47.3 µM | SR 32.6 µM | CCRF-CEM 19.1 µM | A549 49 µM | EKVX 74.5 µM | UO-31 20.6 µM | 786-0 44.3 µM | NCI-H522 34 µM | DU-145 69.8 µM | SF-295 25 µM | SNB-19 36.6 µM | HCC 2998 20.9 µM | NCI-H460 29.9 µM | Hs-578T 40.8 µM | IGROV-1 40.5 µM | HCT-116 25.8 µM | COLO 205 17.2 µM | MDA-MB-231 32.7 µM | MCF7 29.2 µM | U-251 30.5 µM | SF-268 42.3 µM | UACC-257 12.9 µM | OVCAR-3 45.7 µM | SNB-75 24.9 µM | PC-3 17.3 µM | SK-MEL-28 44.1 µM | MOLT-4 29.5 µM | NCI/ADR-RES 41.8 µM | MDA-N 34.7 µM | ACHN 38 µM | NCI-H23 > 100 µM | OVCAR-8 27.2 µM | RPMI-8226 26.2 µM | SK-MEL-2 32.7 µM | HOP-92 20.5 µM | M14 39.4 µM | CAKI-1 56.2 µM | HOP-62 31.1 µM | UACC-62 23.9 µM | SN12C 22.9 µM | KM12 46.2 µM | SW-620 21.8 µM | HL-60 34.8 µM | NCI-H226 37 µM

CC[C@]1(Cc2ccc(OC)c(OC)c2)C2CC(C(=O)OC)ON2O[C@H](OCc2ccccc2)[C@@H]1OC(C)=O (stereo partly specified)
inactive: LOX IMVI > 100 µM | Malme-3M > 100 µM | SK-OV-3 > 100 µM | OVCAR-5 > 100 µM | MDA-MB-435 > 100 µM | K562 > 100 µM | SK-MEL-5 > 100 µM | HT-29 > 100 µM | RXF 393 > 100 µM | SR > 100 µM | CCRF-CEM > 100 µM | A549 > 100 µM | EKVX > 100 µM | UO-31 > 100 µM | 786-0 > 100 µM | NCI-H522 > 100 µM | DU-145 > 100 µM | SF-295 > 100 µM | SNB-19 > 100 µM | HCC 2998 39.2 µM | NCI-H460 > 100 µM | IGROV-1 42.4 µM | HCT-116 > 100 µM | COLO 205 > 100 µM | MDA-MB-231 > 100 µM | MCF7 > 100 µM | OVCAR-4 > 100 µM | U-251 > 100 µM | UACC-257 > 100 µM | T47D 47 µM | OVCAR-3 > 100 µM | BT-549 > 100 µM | A498 > 100 µM | SNB-75 > 100 µM | PC-3 > 100 µM | SK-MEL-28 > 100 µM | MOLT-4 > 100 µM | NCI/ADR-RES > 100 µM | MDA-N > 100 µM | ACHN > 100 µM | NCI-H23 > 100 µM | OVCAR-8 > 100 µM | RPMI-8226 98.6 µM | SK-MEL-2 > 100 µM | HOP-92 99.3 µM | M14 > 100 µM | CAKI-1 > 100 µM | HOP-62 > 100 µM | UACC-62 > 100 µM | TK-10 > 100 µM | SN12C > 100 µM | KM12 > 100 µM | SW-620 > 100 µM | HL-60 26.1 µM | NCI-H226 > 100 µM
> 100 µM: HCT-15

CCCCC1(O)CC2CC1C(C)C2(C)C (stereo unspecified)
inactive: LOX IMVI > 100 µM | Malme-3M > 100 µM | SK-OV-3 > 100 µM | OVCAR-5 > 100 µM | SF-539 > 100 µM | MDA-MB-435 > 100 µM | K562 > 100 µM | SK-MEL-5 > 100 µM | HT-29 > 100 µM | RXF 393 > 100 µM | SR 44.8 µM | CCRF-CEM 93.5 µM | A549 > 100 µM | EKVX > 100 µM | UO-31 > 100 µM | 786-0 > 100 µM | DU-145 > 100 µM | SF-295 > 100 µM | SNB-19 > 100 µM | HCC 2998 > 100 µM | Hs-578T 84.5 µM | IGROV-1 > 100 µM | HCT-116 > 100 µM | COLO 205 > 100 µM | MDA-MB-231 > 100 µM | MCF7 > 100 µM | OVCAR-4 > 100 µM | U-251 > 100 µM | SF-268 > 100 µM | UACC-257 > 100 µM | OVCAR-3 > 100 µM | BT-549 > 100 µM | SNB-75 > 100 µM | PC-3 > 100 µM | SK-MEL-28 > 100 µM | MOLT-4 93.3 µM | NCI/ADR-RES > 100 µM | MDA-N > 100 µM | NCI-H23 > 100 µM | OVCAR-8 > 100 µM | RPMI-8226 54.6 µM | M14 > 100 µM | CAKI-1 > 100 µM | HOP-62 > 100 µM | UACC-62 > 100 µM | TK-10 > 100 µM | SN12C > 100 µM | KM12 > 100 µM | SW-620 > 100 µM | HL-60 21.5 µM | NCI-H226 > 100 µM
> 100 µM: HCT-15

O=c1cc(CC(O)(C(F)(F)Cl)C(F)(F)Cl)[nH]n1-c1ccccc1
inactive: LOX IMVI > 100 µM | Malme-3M > 100 µM | SK-OV-3 > 100 µM | OVCAR-5 > 100 µM | SF-539 > 100 µM | MDA-MB-435 > 100 µM | K562 92.3 µM | SK-MEL-5 > 100 µM | HT-29 > 100 µM | RXF 393 > 100 µM | SR > 100 µM | CCRF-CEM > 100 µM | A549 > 100 µM | EKVX > 100 µM | UO-31 78.9 µM | 786-0 > 100 µM | DU-145 > 100 µM | SF-295 > 100 µM | SNB-19 > 100 µM | HCC 2998 > 100 µM | NCI-H460 > 100 µM | Hs-578T 15 µM | IGROV-1 > 100 µM | HCT-116 > 100 µM | COLO 205 > 100 µM | MDA-MB-231 > 100 µM | MCF7 > 100 µM | OVCAR-4 > 100 µM | U-251 > 100 µM | SF-268 > 100 µM | UACC-257 > 100 µM | T47D 52.6 µM | A498 > 100 µM | SNB-75 > 100 µM | SK-MEL-28 > 100 µM | MOLT-4 > 100 µM | NCI/ADR-RES > 100 µM | ACHN > 100 µM | NCI-H23 > 100 µM | OVCAR-8 > 100 µM | RPMI-8226 > 100 µM | HOP-92 20.7 µM | M14 > 100 µM | HOP-62 > 100 µM | UACC-62 > 100 µM | TK-10 > 100 µM | SN12C > 100 µM | KM12 > 100 µM | SW-620 > 100 µM | HL-60 > 100 µM | NCI-H226 66.4 µM
> 100 µM: HCT-15

From ChEMBL document CHEMBL1201862, “PubChem BioAssay data set” (2004)
